{"source": "patent US10071133B2", "about": "“Method for destroying exosomes, kit for destroying exosomes, and method for isolating exosomes derived from normal cells” (priority 2015, dated 2018)", "tested_on": "exosomes derived from human breast cancer cells (MM231-luc-D3H2LN) in human peripheral blood sample", "settings": "[…]10^10 particles/mL exosomes, 100 μM magainin 2 or 8% phenol, 25° C., 24 hours", "procedure": "The exosome fraction A prepared from the cell line MM231-luc-D3H2LN derived from human breast cancer cells was added to a peripheral blood sample collected from a healthy person with no cancer (hereinafter will be also referred to as human peripheral blood sample) so as to become an exosome concentration of an actual cancer patient, and thereby an artificial sample of a human peripheral blood of the cancer patient was produced. The human peripheral blood sample was obtained after procurement of the patient informed consent according to the Declaration of Helsinki, similarly to the method described in Japanese Unexamined patent publication No. 2013-198483, for example. Blood was drawn using a blood collection tube containing an anticoagulant.\nUsing a part of the incubated solution, the exosomes were purified with Exo-Flow32 CD9 IP Kit (manufactured by SBI), and then the number of exosomes in the solution was measured using the nanoparticle analyzer (NanoSight LM10; manufactured by NanoSight, Ltd.). […] In addition, a part of the incubated solution was subjected to the serum component protein electrophoresis."}
{"smiles": "Oc1ccccc1", "note": "[Comparative Example 2, phenol, reference compound]", "values": [{"measurement": "exosome amount compared to Comparative Example 3 (no additive)", "value": "decreased"}]}
